Source: patent publication EP2276483B1, “SOLID FORMS COMPRISING (+)-2-[1-(3-ETHOXY-4-METHOXYPHENYL)-2-METHYLSULFONYLETHYL]-4-ACETYLAMINOISOINDOLINE-1,3-DIONE, COMPOSITIONS THEREOF, AND USES THEREOF” (CELGENE CORPORATION, priority 2008, dated 2009)
Converted amounts (≈) assume the structure as drawn. Where two headings read alike, the source gives them in different places.

Assays:
[1] = Solubility Studies in solvents; format: physicochemical; conditions: 25 °C, thermodynamic from solid, about 25 °C, read-out: Approximate Solubility
Experimental: Solubility Studies. A weighed sample of Compound A (about 100 mg) was treated with about 2 mL of the test solvent. The solvents used were either reagent or HPLC grade. The resulting mixture was agitated for at least 24 hours at about 25 °C. When all of the solids were dissolved by visual inspection, the estimated solubilities were calculated. The solubilities were estimated from these experiments based on the total volume of solvent used to give a solution. The actual solubilities may be greater than those calculated due to the use of large amount of solvent or to a slow rate of dissolution. […] A known volume of filtrate was evaporated to dryness and the weight of the residue was measured.
Solubility Studies. […] Form B was also found to have low solubility in several solvents including n-butanol, heptane, 2-propanol, toluene and water (less than about 1 mg/mL).

[2] = Stability Studies of solid forms; format: physicochemical
Experimental: Stability Studies. The stabilities of Forms A, B, C and D were studied by exposing the solid samples to the stress condition of 40 °C / 75% RH for four weeks. Moreover, the stabilities of Forms A, B, C and D in different solvents were studied by equilibration in different solvents at 40 °C for four weeks. The slurries then were filtered and dried in the air. Solid samples obtained from the stability experiments were analyzed by XRPD and DSC.

[3] = Hygroscopicity studies (DVS moisture sorption/desorption); format: physicochemical; conditions: for mass change of the starting mass of the sample (moisture sorption): RH increased from about 0% to about 95% RH; for solid-state transformation as a result of DVS analysis (XRPD): after full adsorption/desorption cycle, about 0% to about 95% RH, about 25 °C
Experimental: Hygroscopicity studies. The hygroscopicity of various solid forms was studied using a Surface Measurement Systems DVS instrument. Typically a sample size of between about 10-50 mg was loaded into the DVS instrument sample pan and the sample was analyzed on a DVS automated sorption analyzer at about 25 °C. The relative humidity was increased in increments of about 10% from about 0% to about 95% RH: The relative humidity was then decreased in a similar manner to accomplish a full adsorption/desorption cycle. The mass was recorded at periodic intervals throughout the experiment.
Hygroscopicity Studies. […] Table 6. Solubility Study on Form B

[4] = Compression Studies of solid forms; conditions: 2000 psi force for at least one minute
[5] = Interconversion Studies of solid forms; format: physicochemical; conditions: EQ in acetone:ethanol (1:1) at 25 °C; slurry agitated at least 2 days
Experimental: Interconversion Studies. Interconversion experiments were performed by making slurries of a solid form in a saturated solvent. The slurries were agitated for at least 2 days at about 25 °C. The saturated solution was removed by filtration and the solid was dried in the air.

[6] = EQ in ethanol at 40 °C for 4 weeks
[7] = EQ in heptane at 40 °C for 4 weeks
[8] = EQ in toluene at 40 °C for 4 weeks
[9] = EQ in water at 40 °C for 4 weeks

SMILES	Analysis by XRPD (resulting form) ([2]; 40 °C / 75% RH, 4 weeks)	Appearance ([2]; 40 °C / 75% RH, 4 weeks)	Analysis by XRPD (resulting form) [2, 6]	Analysis by XRPD (resulting form) [2, 7]	Analysis by XRPD (resulting form) [2, 8]	Analysis by XRPD (resulting form) [2, 9]	mass change of the starting mass of the sample (moisture sorption) [3]	solid-state transformation as a result of DVS analysis (XRPD) [3]	physical stability upon compression by XRPD analysis [4]	Analysis by XRPD (resulting form) [5]	other results
CCOc1cc(C(CS(C)(=O)=O)N2C(=O)c3cccc(NC(C)=O)c3C2=O)ccc1OC (single isomer, unassigned; (+)) [Form B, (+)-2-[1-(3-ethoxy-4-methoxyphenyl)-2-methylsulfonylethyl]-4-acetylaminoisoindoline-1,3-dione]	Form B	White solid	Form B	Form B	Form B	Form B	about 0.6%	none of the forms analyzed underwent substantial solid-state transformation	substantially physically stable		solubility ([1]; 2-propanol, organic solvent or mixture, 2-Propanol): < 1000 µg/mL; solubility ([1]; absolute ethanol, organic solvent or mixture, Absolute ethanol): 1380 µg/mL (≈ 3 mM); solubility ([1]; acetone, organic solvent or mixture, Acetone): > 50000 µg/mL; solubility ([1]; acetonitrile, organic solvent or mixture, Acetonitrile): > 50000 µg/mL; solubility ([1]; ethanol:water (1:1), aqueous with cosolvent or surfactant or cyclodextrin, Ethanol: Water (1:1)): 2860 µg/mL (≈ 6.21 mM); solubility ([1]; ethyl acetate, organic solvent or mixture, Ethyl acetate): ~30200 µg/mL (≈ 65.5 mM); solubility ([1]; methanol, organic solvent or mixture, Methanol): 4050 µg/mL (≈ 8.79 mM); solubility ([1]; methyl ethyl ketone, organic solvent or mixture, Methyl ethyl ketone): > 50000 µg/mL; solubility ([1]; methyl t-butyl ether, organic solvent or mixture, Methyl t-butyl ether): 1170 µg/mL (≈ 2.54 mM); solubility ([1]; methylene chloride, organic solvent or mixture, Methylene chloride): > 50000 µg/mL; solubility ([1]; n-butanol, organic solvent or mixture, n-Butanol): < 1000 µg/mL; solubility ([1]; n-butyl acetate, organic solvent or mixture, n-Butyl acetate): 9750 µg/mL (≈ 21.2 mM); solubility ([1]; tetrahydrofuran, organic solvent or mixture, Tetrahydrofuran): > 50000 µg/mL; solubility ([1]; toluene, organic solvent or mixture, Toluene): < 1000 µg/mL; solubility ([1]; water, water, Water): < 1000 µg/mL
CCOc1cc(C(CS(C)(=O)=O)N2C(=O)c3cccc(NC(C)=O)c3C2=O)ccc1OC (single isomer, unassigned; (+)) [Form A, (+)-2-[1-(3-ethoxy-4-methoxyphenyl)-2-methylsulfonylethyl]-4-acetylaminoisoindoline-1,3-dione]	Form A	White solid	Form F	Form A	Form C	Form A	about 0.4%	none of the forms analyzed underwent substantial solid-state transformation	substantially physically stable	Form B	
CCOc1cc(C(CS(C)(=O)=O)N2C(=O)c3cccc(NC(C)=O)c3C2=O)ccc1OC (single isomer, unassigned; (+)) [Form C, (+)-2-[1-(3-ethoxy-4-methoxyphenyl)-2-methylsulfonylethyl]-4-acetylaminoisoindoline-1,3-dione]	Form C	Yellow solid	Form C	Form C	Form C	Form C	about 0.5%	none of the forms analyzed underwent substantial solid-state transformation	substantially physically stable	Form C	
CCOc1cc(C(CS(C)(=O)=O)N2C(=O)c3cccc(NC(C)=O)c3C2=O)ccc1OC (single isomer, unassigned; (+)) [Form D, (+)-2-[1-(3-ethoxy-4-methoxyphenyl)-2-methylsulfonylethyl]-4-acetylaminoisoindoline-1,3-dione]	Form D	White solid	Form B	Form B	Form C	Form B	about 1.5%	none of the forms analyzed underwent substantial solid-state transformation	substantially physically stable	Form B	
